Laboratory results as given in patent US20210253575A1, “PYRROLIDINE AMINE COMPOUNDS FOR THE TREATMENT OF AUTOIMMUNE DISEASE” (Hoffmann-La Roche Inc., priority 2018, published 2021).

What follows are compounds tested against T1, human TLR8 (Homo sapiens, UniProt Q9NR97) (assay: HEK293-Blue-hTLR-8 cells assay (SEAP reporter, R848 stimulation)). Details: HEK293-Blue-hTLR8 cells, R848 ligand, 20 hrs incubation.
T1 sequence (Q9NR97 27-1041): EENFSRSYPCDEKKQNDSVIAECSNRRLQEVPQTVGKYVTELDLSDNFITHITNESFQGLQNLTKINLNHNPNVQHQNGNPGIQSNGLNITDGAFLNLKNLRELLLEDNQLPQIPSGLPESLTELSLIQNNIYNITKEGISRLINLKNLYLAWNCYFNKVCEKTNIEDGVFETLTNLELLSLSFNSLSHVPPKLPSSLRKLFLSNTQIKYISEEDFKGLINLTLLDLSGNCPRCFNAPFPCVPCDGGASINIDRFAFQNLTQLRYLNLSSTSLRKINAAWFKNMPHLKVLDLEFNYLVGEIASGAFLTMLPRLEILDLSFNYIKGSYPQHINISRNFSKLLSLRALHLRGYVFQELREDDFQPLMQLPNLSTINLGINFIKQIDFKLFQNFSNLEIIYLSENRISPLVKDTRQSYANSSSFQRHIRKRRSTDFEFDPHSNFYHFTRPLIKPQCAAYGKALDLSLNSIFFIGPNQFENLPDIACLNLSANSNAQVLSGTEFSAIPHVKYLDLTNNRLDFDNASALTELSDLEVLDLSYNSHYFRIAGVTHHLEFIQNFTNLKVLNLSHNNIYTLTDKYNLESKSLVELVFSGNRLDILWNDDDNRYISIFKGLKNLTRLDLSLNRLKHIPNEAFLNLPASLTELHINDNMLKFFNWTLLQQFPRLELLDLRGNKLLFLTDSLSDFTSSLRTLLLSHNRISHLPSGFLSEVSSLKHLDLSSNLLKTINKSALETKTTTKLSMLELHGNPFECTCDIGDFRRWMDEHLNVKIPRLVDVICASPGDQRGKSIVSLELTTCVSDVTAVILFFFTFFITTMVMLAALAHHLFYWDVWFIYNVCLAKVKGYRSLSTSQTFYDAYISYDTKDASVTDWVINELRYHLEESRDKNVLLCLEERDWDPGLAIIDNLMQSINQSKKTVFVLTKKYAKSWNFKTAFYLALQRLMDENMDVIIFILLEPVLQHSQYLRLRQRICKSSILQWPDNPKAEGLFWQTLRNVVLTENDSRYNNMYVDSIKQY
Assay type: cell-based
Protocol: The following tests were carried out in order to determine the activity of the compounds of formula (I) in HEK293-Blue-hTLR-7/8/9 cells assay.
HEK293-Blue-hTLR-8 Cells Assay:
A stable HEK293-Blue-hTLR-8 cell line was purchased from InvivoGen (Cat. #: hkb-htlr8, San Diego, Calif., USA). These cells were originally designed for studying the stimulation of human TLR8 by monitoring the activation of NF-κB. A SEAP (secreted embryonic alkaline phosphatase) reporter gene was placed under the control of the IFN-β minimal promoter fused to five NF-κB and AP-1-binding sites. The SEAP was induced by activating NF-κB and AP-1 via stimulating HEK-Blue hTLR8 cells with TLR8 ligands. Therefore the reporter expression was declined by TLR8 antagonist under the stimulation of a ligand, such as R848, for incubation of 20 hrs. The cell culture supernatant SEAP reporter activity was determined using QUANTI-Blue™ kit (Cat. #: rep-qb1, Invivogen, San Diego, Ca, USA) at a wavelength of 640 nm, a detection medium that turns purple or blue in the presence of alkaline phosphatase.
HEK293-Blue-hTLR8 cells were incubated at a density of 250,000˜450,000 cells/mL in a volume of 170 μL in a 96-well plate in Dulbecco's Modified Eagle's medium (DMEM) containing 4.5 g/L glucose, 50 U/mL penicillin, […], […], 2 mM L-glutamine, 10% (v/v) heat-inactivated fetal bovine serum with addition of 20 μL test compound in a serial dilution in the presence of final DMSO at 1% and 10 μL of 60 uM R848 in above DMEM, perform incubation under 37° C. in a CO2 incubator for 20 hrs. Then 20 μL of the supernatant from each well was incubated with 180 μL Quanti-blue substrate solution at 37° C. for 2 hrs and the absorbance was read at 620-655 nm using a spectrophotometer. The signalling pathway that TLR8 activation leads to downstream NF-κB activation has been widely accepted, and therefore similar reporter assay was modified for evaluating TLR8 antagonist.

Row | Compound | IC50
1 | N#Cc1ccc(N2C[C@H](CN3CC4CCC3CN4)[C@@H](C(F)(F)F)C2)c2nccnc12 (stereo partly drawn) [Example 77, 8-[(3S,4R)-3-(2,5-diazabicyclo[2.2.2]octan-2-ylmethyl)-4-(trifluoromethyl)pyrrolidin-1-yl]quinoxaline-5-carbonitrile] | 0.026 µM
2 | CC[C@@H]1CN(c2ccc(C#N)c3ncccc23)C[C@H]1CN1CCC2(CCNCC2)CC1 (relative stereo) [Example 15, 5-[Trans-3-(3,9-diazaspiro[5.5]undecan-3-ylmethyl)-4-ethyl-pyrrolidin-1-yl]quinoline-8-carbonitrile] | 0.19 µM
3 | CC1(N)CCN(CC2CN(c3ccc(C#N)c4nccnc34)CC23CC3)CC1 (stereo not drawn) [Example 7, 8-[7-[(4-Amino-4-methyl-1-piperidyl)methyl]-5-azaspiro[2.4]heptan-5-yl]quinoxaline-5-carbonitrile] | 0.043 µM
4 | N#Cc1ccc(N2CC(CN3CCC(N)CC3)C3(CC3)C2)c2nccnc12 (single isomer, unassigned) [Example 68A, 8-[7-[(4-Amino-1-piperidyl)methyl]-5-azaspiro[2.4]heptan-5-yl]quinoxaline-5-carbonitrile] | 0.06 µM
5 | N#Cc1ccc(N2C[C@H](CN3CCC(N4CCCCCC4)CC3)[C@@H](C(F)(F)F)C2)c2nccnc12 [Example 62, 8-[(3S,4R)-3-[[4-(Azepan-1-yl)-1-piperidyl]methyl]-4-(trifluoromethyl)pyrrolidin-1-yl]quinoxaline-5-carbonitrile] | 0.028 µM
6 | C[C@@H]1CN(c2ccc(C(F)(F)F)c3nccnc23)C[C@H]1CN1CCC(N2CCCCC2)CC1 (relative stereo) [Example 33, 5-[Trans-3-methyl-4-[[4-(1-piperidyl)-1-piperidyl]methyl]pyrrolidin-1-yl]-8-(trifluoromethyl)quinoxaline] | 0.245 µM
7 | N#Cc1ccc(N2C[C@H](CN3CCC(N4CCCCC4)CC3)[C@@H](C(F)(F)F)C2)c2nccnc12 [Example 61, 8-[(3S,4R)-3-[[4-(1-Piperidyl)-1-piperidyl]methyl]-4-(trifluoromethyl)pyrrolidin-1-yl]quinoxaline-5-carbonitrile] | 0.023 µM
8 | N#Cc1ccc(N2C[C@H](CN3CCC4(CCCNC4)CC3)[C@@H](C(F)(F)F)C2)c2nccnc12 [Example 45, 8-[(3S,4R)-3-(2,9-diazaspiro[5.5]undecan-9-ylmethyl)-4-(trifluoromethyl)pyrrolidin-1-yl]quinoxaline-5-carbonitrile] | 0.032 µM
9 | N#Cc1ccc(N2C[C@H](CN3CCCC4(CCNCC4)C3)[C@@H](C(F)(F)F)C2)c2cccnc12 [Example 57, 5-[(3S,4R)-3-(2,9-Diazaspiro[5.5]undecan-2-ylmethyl)-4-(trifluoromethyl)pyrrolidin-1-yl]quinoline-8-carbonitrile] | 0.085 µM
10 | N#Cc1ccc(N2C[C@H](CN3CCNCC3)[C@@H](C(F)(F)F)C2)c2nccnc12 [Example 59, 8-[(3S,4R)-3-(Piperazin-1-ylmethyl)-4-(trifluoromethyl)pyrrolidin-1-yl]quinoxaline-5-carbonitrile] | 0.014 µM
11 | C[C@H]1CN(c2ccc(C#N)c3nccnc23)C[C@@H]1CN1CCC2(CCNC2)C1 (stereo partly drawn) [Example 30, 8-[(3S,4R)-3-(2,7-diazaspiro[4.4]nonan-2-ylmethyl)-4-methyl-pyrrolidin-1-yl]quinoxaline-5-carbonitrile] | 0.072 µM
12 | CN(C)C1CCN(C[C@H]2CN(c3ccc(C#N)c4nccnc34)C[C@@H]2C(F)(F)F)CC1 [Example 80, 8-[(3S,4R)-3-[[4-(dimethylamino)-1-piperidyl]methyl]-4-(trifluoromethyl)pyrrolidin-1-yl]quinoxaline-5-carbonitrile] | 0.032 µM
13 | N#Cc1ccc(N2C[C@H](CN3CCC(CN)CC3)[C@@H](C(F)(F)F)C2)c2nccnc12 [Example 74, 8-[(3S,4R)-3-[[4-(aminomethyl)-1-piperidyl]methyl]-4-(trifluoromethyl)pyrrolidin-1-yl]quinoxaline-5-carbonitrile] | 0.055 µM
14 | N#Cc1ccc(N2C[C@H](CN3CCC(N)C(F)(F)C3)[C@@H](C(F)(F)F)C2)c2nccnc12 (stereo partly drawn) [Example 64, 8-[(3S,4R)-3-[(4-amino-3,3-difluoro-1-piperidyl)methyl]-4-(trifluoromethyl)pyrrolidin-1-yl]quinoxaline-5-carbonitrile] | 0.086 µM
15 | N#Cc1ccc(N2CC(CN3CCC(N4CCOCC4)CC3)C3(CC3)C2)c2nccnc12 (stereo not drawn) [Example 58, 8-[7-[(4-Morpholino-1-piperidyl)methyl]-5-azaspiro[2.4]heptan-5-yl]quinoxaline-5-carbonitrile] | 0.091 µM
16 | N#Cc1ccc(N2C[C@H](CN3CC4CNCC4C3)[C@@H](C(F)(F)F)C2)c2nccnc12 (stereo partly drawn) [Example 76, 8-[(3S,4R)-3-(2,3,3a,4,6,6a-hexahydro-1H-pyrrolo[3,4-c]pyrrol-5-ylmethyl)-4-(trifluoromethyl)pyrrolidin-1-yl]quinoxaline-5-carbonitrile] | 0.041 µM
17 | N#Cc1ccc(N2C[C@H](CN3CCC(N)CC3)[C@@H](C(F)(F)F)C2)c2nccnc12 [Example 26, 8-[(3S,4R)-3-[(4-Amino-1-piperidyl)methyl]-4-(trifluoromethyl)pyrrolidin-1-yl]quinoxaline-5-carbonitrile] | 0.021 µM
18 | N#Cc1ccc(N2CC(CN3CC4(CCCNC4)C3)C3(CC3)C2)c2nccnc12 (stereo not drawn) [Example 24, 8-[7-(2,8-Diazaspiro[3.5]nonan-2-ylmethyl)-5-azaspiro[2.4]heptan-5-yl]quinoxaline-5-carbonitrile] | 0.063 µM
19 | CC[C@@H]1CN(c2ccc(C#N)c3ncccc23)C[C@H]1CN1CCC2(CCNC2)C1 (relative stereo) [Example 29, 5-[Trans-3-(2,7-diazaspiro[4.4]nonan-2-ylmethyl)-4-ethyl-pyrrolidin-1-yl]quinoline-8-carbonitrile] | 0.197 µM
20 | FC(F)(F)c1ccc(N2CC(CN3C[C@H]4CNC[C@H]4C3)C3(CC3)C2)c2nccnc12 (stereo partly drawn) [Example 41, 5-[7-[[(3aR,6aS)-2,3,3a,4,6,6a-hexahydro-H-pyrrolo[3,4-c]pyrrol-5-yl]methyl]-5-azaspiro[2.4]heptan-5-yl]-8-(trifluoromethyl)quinoxaline] | 0.357 µM
21 | N#Cc1ccc(N2C[C@H](CN3CCCC(F)(CN)C3)[C@@H](C(F)(F)F)C2)c2nccnc12 (stereo partly drawn) [Example 78, 8-[(3S,4R)-3-[[3-(aminomethyl)-3-fluoro-1-piperidyl]methyl]-4-(trifluoromethyl)pyrrolidin-1-yl]quinoxaline-5-carbonitrile] | 0.03 µM
22 | N#Cc1ccc(N2CC(CN3CCOC4(CCNCC4)C3)C3(CC3)C2)c2nccnc12 (stereo not drawn) [Example 67, 8-[7-(1-Oxa-4,9-diazaspiro[5.5]undecan-4-ylmethyl)-5-azaspiro[2.4]heptan-5-yl]quinoxaline-5-carbonitrile] | 0.041 µM
23 | N#Cc1ccc(N2CC(CN3C4CCC3CC(N)C4)C3(CC3)C2)c2nccnc12 (stereo not drawn) [Example 25, 8-[7-[(3-Amino-8-azabicyclo[3.2.1]octan-8-yl)methyl]-5-azaspiro[2.4]heptan-5-yl]quinoxaline-5-carbonitrile] | 0.108 µM
24 | N#Cc1ccc(N2C[C@H](CN3CCC4(CCNC4)C3)[C@@H](C(F)(F)F)C2)c2cccnc12 (stereo partly drawn) [Example 9, 5-[(3S,4R)-3-(2,7-diazaspiro[4.4]nonan-2-ylmethyl)-4-(trifluoromethyl)pyrrolidin-1-yl]quinoline-8-carbonitrile] | 0.047 µM
